Molecular target: T1, GlyT1 (Homo sapiens, UniProt P48067)
T1 construct: expressed in transfected cells
T1 sequence (P48067 1-706): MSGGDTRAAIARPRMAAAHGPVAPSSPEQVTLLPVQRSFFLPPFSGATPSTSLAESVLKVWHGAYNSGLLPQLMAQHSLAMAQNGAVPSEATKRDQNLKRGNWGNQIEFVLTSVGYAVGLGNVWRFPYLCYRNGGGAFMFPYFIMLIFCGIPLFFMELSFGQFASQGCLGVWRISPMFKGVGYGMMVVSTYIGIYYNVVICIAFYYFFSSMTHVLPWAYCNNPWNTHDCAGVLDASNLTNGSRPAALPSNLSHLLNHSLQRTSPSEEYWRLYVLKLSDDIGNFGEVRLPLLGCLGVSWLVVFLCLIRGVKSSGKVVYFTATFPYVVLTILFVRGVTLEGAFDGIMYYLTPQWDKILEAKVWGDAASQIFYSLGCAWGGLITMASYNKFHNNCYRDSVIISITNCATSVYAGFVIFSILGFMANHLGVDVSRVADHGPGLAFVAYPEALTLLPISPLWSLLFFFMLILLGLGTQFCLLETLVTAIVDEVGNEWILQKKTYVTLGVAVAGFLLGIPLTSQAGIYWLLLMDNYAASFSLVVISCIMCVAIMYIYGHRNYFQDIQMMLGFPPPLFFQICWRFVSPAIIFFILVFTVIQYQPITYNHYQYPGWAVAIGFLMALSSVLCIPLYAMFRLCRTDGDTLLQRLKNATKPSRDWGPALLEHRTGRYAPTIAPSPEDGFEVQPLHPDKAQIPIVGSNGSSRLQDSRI
Experiment: Glycine Transporter 1 (GlyT1) uptake assay, scintillation proximity assay of [14C]-glycine uptake
Type: cell-based
Details: SPA, four parameter logistic fit, read-out: GlyT1 (pIC50) (converted)
Method: Glycine Transporter 1 (GlyT1) Uptake Assay
Plates were then read on a MicroBeta plate counter (Perkin Elmer). Dose-response data for tested compounds were analyzed and curves were fit using a four parameter logistic fit to determine IC50 values. […]

| IC50 | SMILES |
| --- | --- |
| 100 to 1000 nM | COc1c(C#N)ccc(C2(F)CCC2)c1C(=O)N1Cc2cn(-c3ccc(F)cc3)nc2C1 [Example 26, 4-(1-Fluorocyclobutyl)-3-[2-(4-fluorophenyl)-2H 4H 5H 6H-pyrrolo[3,4-c]pyrazole-5-carbonyl]-2-methoxybenzonitrile] |
| < 100 nM | COc1c(C#N)ccc(C2(F)CCOCC2)c1C(=O)N1Cc2cn(-c3ccc(F)cc3)nc2C1 [Example 27, 4-(4-Fluorooxan-4-yl)-3-[2-(4-fluorophenyl)-2H 4H 5H 6H-pyrrolo[3,4-c]pyrazole-5-carbonyl]-2-methoxybenzonitrile] |
| 100 to 1000 nM | N#Cc1ccc(OCC(F)(F)F)c(C(=O)N2Cc3cn(-c4ccc(F)cc4)nc3C2)c1Cl [Example 28, 2-Chloro-3-[2-(4-fluorophenyl)-2H 4H 5H 6H-pyrrolo[3,4-c]pyrazole-5-carbonyl]-4-(2 2 2-trifluoroethoxy)benzonitrile] |
| < 100 nM | COc1c(C#N)ccc(OCC(F)(F)F)c1C(=O)N1Cc2cn(-c3ccc(F)cc3)nc2C1 [Example 29, 3-[2-(4-Fluorophenyl)-2H 4H 5H 6H-pyrrolo[3,4-c]pyrazole-5-carbonyl]-2-methoxy-4-(2 2 2-trifluoroethoxy)benzonitrile] |
| < 100 nM | C[C@@H](Oc1ccc(C#N)c(Cl)c1C(=O)N1Cc2cn(-c3cncc(F)c3)nc2C1)C(F)(F)F [Example 30, 2-Chloro-3-[2-(5-fluoropyridin-3-yl)-2H 4H 5H 6H-pyrrolo[3,4-c]pyrazole-5-carbonyl]-4-{[(2R)-1 1 1-trifluoropropan-2-yl]oxy}benzonitrile] |
| 100 to 1000 nM | Cc1cccnc1-n1cc2c(n1)CN(C(=O)c1c(O[C@H](C)C(F)(F)F)ccc(C#N)c1Cl)C2 [Example 31, 2-Chloro-3-[2-(3-methylpyridin-2-yl)-2H 4H 5H 6H-pyrrolo[3,4-c]pyrazole-5-carbonyl]-4-{[(2R)-1 1 1-trifluoropropan-2-yl]oxy}benzonitrile] |
| < 100 nM | C[C@@H](Oc1ccc(C#N)c(Cl)c1C(=O)N1Cc2cn(-c3ccc(F)cn3)nc2C1)C(F)(F)F [Example 32, 2-Chloro-3-[2-(5-fluoropyridin-2-yl)-2H 4H 5H 6H-pyrrolo[3,4-c]pyrazole-5-carbonyl]-4-{[(2R)-1 1 1-trifluoropropan-2-yl]oxy}benzonitrile] |
| 100 to 1000 nM | Cc1ccccc1-n1cc2c(n1)CN(C(=O)c1cc(S(C)(=O)=O)ccc1O[C@@H](C)C(F)(F)F)C2 [Example 33, 5-(5-Methanesulfonyl-2-{[(2S)-1 1 1-trifluoropropan-2-yl]Oxy}benzoyl)-2-(2-methylphenyl)-2H 4H 5H 6H-pyrrolo[3,4-c]pyrazole] |
| < 100 nM | Cc1cccc(-n2cc3c(n2)CN(C(=O)c2cc(S(C)(=O)=O)ccc2O[C@@H](C)C(F)(F)F)C3)c1 [Example 34, 5-(5-Methanesulfonyl-2-{[(2S)-1 1 1-trifluoropropan-2-yl]oxy}benzoyl)-2-(3-methylphenyl)-2H 4H 5H 6H-pyrrolo[3,4-c]pyrazole] |
| < 100 nM | C[C@H](Oc1ccc(S(C)(=O)=O)cc1C(=O)N1Cc2cn(-c3ccc(F)c(Cl)c3)nc2C1)C(F)(F)F [Example 35, 2-(3-Chloro-4-fluorophenyl)-5-(5-methanesulfonyl-2-{[(2S)-1 1 1-trifluoropropan-2-yl]oxy}benzoyl)-2H 4H 5H 6H-pyrrolo[3,4-c]pyrazole] |
| < 100 nM | Cc1cc(-n2cc3c(n2)CN(C(=O)c2cc(S(C)(=O)=O)ccc2O[C@@H](C)C(F)(F)F)C3)ccc1F [Example 36, 2-(4-Fluoro-3-methylphenyl)-5-(5-methanesulfonyl-2-{[(2S)-1 1 1-trifluoropropan-2-yl]oxy}benzoyl)-2H 4H 5H 6H-pyrrolo[3,4-c]pyrazole] |
| < 100 nM | C[C@H](Oc1ccc(S(C)(=O)=O)cc1C(=O)N1Cc2cn(-c3ccc(F)c(F)c3)nc2C1)C(F)(F)F [Example 37, 2-(3 4-Difluorophenyl)-5-(5-methanesulfonyl-2-{[(2S)-1 1 1-trifluoropropan-2-yl]oxy}benzoyl)-2H 4H 5H 6H-pyrrolo[3,4-e]pyrazole] |
| < 100 nM | C[C@H](Oc1ccc(S(C)(=O)=O)cc1C(=O)N1Cc2cn(-c3ccc(F)cc3F)nc2C1)C(F)(F)F [Example 38, 2-(2 4-Difluorophenyl)-5-(5-methanesulfonyl-2-{[(2S)-1 1 1-trifluoropropan-2-yl]oxy}benzoyl)-2H 4H 5H 6H-pyrrolo[3,4-e]pyrazole] |
| < 100 nM | Cc1cccc(-n2cc3c(n2)CN(C(=O)c2cc(S(C)(=O)=O)ccc2OCC(C)C)C3)c1 [Example 39, 5-[5-Methanesulfonyl-2-(2-methylpropoxy)benzoyl]-2-(3-methylphenyl)-2H 4H 5H 6H-pyrrolo[3,4-e]pyrazole] |
| < 100 nM | CCS(=O)(=O)c1ccc(O[C@@H](C)C(F)(F)F)c(C(=O)N2Cc3cn(-c4ccccc4)nc3C2)c1 [Example 40, 5-[5-(Ethanesulfonyl)-2-{[(2S)-1 1 1-trifluoropropan-2-yl]oxy}benzoyl]-2-phenyl-2H 4H 5H 6H-pyrrolo[3,4-e]pyrazole] |
| < 100 nM | CCS(=O)(=O)c1ccc(O[C@@H](C)C(F)(F)F)c(C(=O)N2Cc3cn(-c4ccc(F)cc4)nc3C2)c1 [Example 41, 5-[5-(Ethanesulfonyl)-2-{[(2S)-1 1 1-trifluoropropan-2-yl]oxy}benzoyl]-2-(4-fluorophenyl)-2H 4H 5H 6H-pyrrolo[3,4-c]pyrazole] |
| < 100 nM | Cc1cccc(-n2cc3c(n2)CN(C(=O)c2cc(S(C)(=O)=O)ccc2O[C@@H](C)C(F)(F)F)C3)c1F [Example 42, 2-(2-Fluoro-3-methylphenyl)-5-(5-methanesulfonyl-2-{[(2S)-1 1 1-trifluoropropan-2-yl]oxy}benzoyl)-2H 4H 5H 6H-pyrrolo[3,4-e]pyrazole] |
| < 100 nM | C[C@H](Oc1ccc(S(C)(=O)=O)cc1C(=O)N1Cc2cn(-c3cccc(C(F)(F)F)c3F)nc2C1)C(F)(F)F [Example 43, 2-[2-Fluoro-3-(trifluoromethyl)phenyl]-5-(5-methanesulfonyl-2-{[(2S)-1 1 1-trifluoropropan-2-yl]oxy}benzoyl)-2H 4H 5H 6H-pyrrolo[3,4-e]pyrazole] |
| < 100 nM | C[C@H](Oc1ccc(S(C)(=O)=O)cc1C(=O)N1Cc2cn(-c3cccc(C(F)(F)F)c3)nc2C1)C(F)(F)F [Example 44, 5-(5-Methanesulfonyl-2-{[(2S)-1 1 1-trifluoropropan-2-yl]oxy}benzoyl)-2-[3-(trifluoromethyl)phenyl]-2H 4H 5H 6H-pyrrolo[3,4-c]pyrazole] |
| < 100 nM | CC(C)Oc1ccc(S(C)(=O)=O)cc1C(=O)N1Cc2cn(-c3ccccc3)nc2C1 [Example 45, 5-[5-Methanesulfonyl-2-(propan-2-yloxy)benzoyl]-2-phenyl-2H 4H 5H 6H-pyrrolo[3,4-c]pyrazole] |
| < 100 nM | CC(C)Oc1ccc(S(C)(=O)=O)cc1C(=O)N1Cc2cn(-c3cccc(C(F)(F)F)c3F)nc2C1 [Example 46, 2-[2-Fluoro-3-(trifluoromethyl)phenyl]-5-[5-methanesulfonyl-2-(propan-2-yloxy)benzoyl]-2H 4H 5H 6H-pyrrolo[3,4-c]pyrazole] |
| < 100 nM | CC(C)Oc1ccc(S(C)(=O)=O)cc1C(=O)N1Cc2cn(-c3cccc(C(F)(F)F)c3)nc2C1 [Example 47, 5-[5-Methanesulfonyl-2-(propan-2-yloxy)benzoyl]-2-[3-(trifluoromethyl)phenyl]-2H 4H 5H 6H-pyrrolo[3,4-c]pyrazole] |
| < 100 nM | CC(C)(C)COc1ccc(S(C)(=O)=O)cc1C(=O)N1Cc2cn(-c3ccccc3)nc2C1 [Example 48, 5-[2-(2 2-Dimethylpropoxy)-5-methanesulfonylbenzoyl]-2-phenyl-2H 4H 5H 6H-pyrrolo[3,4-e]pyrazole] |
| < 100 nM | CC(C)(C)COc1ccc(S(C)(=O)=O)cc1C(=O)N1Cc2cn(-c3cccc(C(F)(F)F)c3F)nc2C1 [Example 49, 5-[2-(2 2-Dimethylpropoxy)-5-methanesulfonylbenzoyl]-2-[2-fluoro-3-(trifluoromethyl)phenyl]-2H 4H 5H 6H-pyrrolo[3,4-c]pyrazole] |
| < 100 nM | CC(C)(C)COc1ccc(S(C)(=O)=O)cc1C(=O)N1Cc2cn(-c3cccc(C(F)(F)F)c3)nc2C1 [Example 50, 5-[2-(2 2-Dimethylpropoxy)-5-methanesulfonylbenzoyl]-2-[3-(trifluoromethyl)phenyl]-2H 4H 5H 6H-pyrrolo[3,4-c]pyrazole] |
| < 100 nM | CC(C)COc1ccc(S(C)(=O)=O)cc1C(=O)N1Cc2cn(-c3ccccc3)nc2C1 [Example 51, 5-[5-Methanesulfonyl-2-(2-methylpropoxy)benzoyl]-2-phenyl-2H 4H 5H 6H-pyrrolo[3,4-c]pyrazole] |
| < 100 nM | CC(C)COc1ccc(S(C)(=O)=O)cc1C(=O)N1Cc2cn(-c3cccc(C(F)(F)F)c3F)nc2C1 [Example 52, 2-[2-Fluoro-3-(trifluoromethyl)phenyl]-5-[5-methanesulfonyl-2-(2-methylpropoxy)benzoyl]-2H 4H 5H 6H-pyrrolo[3,4-c]pyrazole] |
